Data on three molecules can be found in PMC11904713 (ACS Omega, 2025).

The nature of one data set: FRAP activity. To be noted: CUR-IPA 50 to 250 μM; ascorbic acid 2 to 10 μM.
Data set [1] in a line: ABTS radical scavenging activity. To be noted: read-out: IC50, ABTS radical scavenging.
The nature of data set [2]: DPPH radical scavenging activity. To be noted: read-out: IC50, DPPH radical scavenging. For orientation: DPPH is a stable violet radical that fades when it is reduced.
Data set [3] relates to AChE. Briefly: AChE inhibition by IPA. It is filed as biochemical. To be noted: data not shown.
Data set [4] deals with T1, BChE (Homo sapiens, UniProt P06276). Briefly: BChE inhibition by IPA. The format is biochemical. To be noted: data not shown.
T1 sequence (P06276 29-602): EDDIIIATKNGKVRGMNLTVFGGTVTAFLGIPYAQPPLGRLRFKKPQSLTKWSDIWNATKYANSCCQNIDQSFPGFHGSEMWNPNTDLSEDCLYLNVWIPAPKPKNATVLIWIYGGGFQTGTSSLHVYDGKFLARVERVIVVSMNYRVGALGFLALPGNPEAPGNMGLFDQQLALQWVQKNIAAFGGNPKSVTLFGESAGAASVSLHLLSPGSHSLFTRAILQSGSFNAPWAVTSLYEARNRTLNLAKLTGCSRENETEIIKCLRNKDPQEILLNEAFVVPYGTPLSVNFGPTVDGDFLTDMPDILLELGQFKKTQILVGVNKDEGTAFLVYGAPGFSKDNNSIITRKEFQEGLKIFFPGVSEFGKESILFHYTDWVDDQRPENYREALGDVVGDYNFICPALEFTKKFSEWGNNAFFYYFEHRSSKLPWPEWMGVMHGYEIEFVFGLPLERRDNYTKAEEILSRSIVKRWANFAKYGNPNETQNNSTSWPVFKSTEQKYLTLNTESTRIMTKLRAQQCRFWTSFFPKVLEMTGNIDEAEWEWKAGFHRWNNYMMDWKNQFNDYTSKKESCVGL
The test system of data set [5] is AChE. To be noted: cited from earlier work.
The next data set concerns eAChE. To be noted: read-out: IC50 against eAChE, cited from earlier work.
For data set [6], the target named is T1, BChE. Conditions: previous study; cited from earlier work.
The conditions of data set [7]: pH 7.3 (physiological pH); cited from earlier work.
Another data set has as its system rat cerebral cortex AChE. Conditions: read-out: IC50, rat cerebral cortex AChE; cited from earlier work.

In brackets after ≈: the same amount, converted by molar mass. Like-named read-outs stand apart in the source and are kept apart here.

Usually IC50 stands for the midpoint of a concentration-inhibition curve. For the molecule `O=C1O[C@H]([C@@H](O)CO)C(O)=C1O` [ascorbic acid], the FRAP activity entry in “FRAP activity” is “present linearly”. Moreover, the half-inhibitory concentration (IC50) in [1] was determined as 15.8 µM; in [2], 34.5 µM.
With `O=C(O)CCc1c[nH]c2ccccc12` [IPA, Indole-3-propionic acid], the “concentration showing inhibition against AChE” value in the data set with AChE [3] was not below 500 µM. In addition, the “concentration showing inhibition against BChE” value at BChE [4] is not below 500 µM.
Broadly, the solubility is the dissolved amount per volume that the medium holds. With `COc1cc(C=CC(=O)CC(=O)C=Cc2ccc(O)c(OC)c2)ccc1O` [CUR, 1,7-bis(4-hydroxy-3-methoxyphenyl)-1,6-heptadiene-3,5-dione], the “effect on AChE activity in the ex vivo model” value in the data set with AChE [5] is on record as “did not affect AChE activity”. For the same molecule, the IC50 with eAChE (another study) was 67.7 µM; in the data set on eAChE (previous study) it was 51.8 µM; with rat cerebral cortex AChE it was 10 µM. Moreover, the “inhibition against BChE” value on BChE [6] is on record as “did not show inhibition”. Further, the solubility in data set [7] is 0.4 µg/mL (≈ 1.09 µM).
